Experimental data reported in article PMC9959918 (2023).
Values belong to the compound of their own block, whether it stands above or below them.

How the values were obtained:
[1] = test system: CPG-tel26 (DNA, G4) TTAGGGTTAGGGTTAGGGTTAGGGTT; experiment: G4-CPG affinity assay, UV; conditions: 50 mM KCl, 10% DMSO, 10% ethanol, 60 μM compound, error ±2%
[2] = test system: CPG-c-myc (DNA, G4) TGGGGAGGGTGGGGAGGGTGGGGAAGGTGGGGA; experiment: G4-CPG affinity assay, UV; conditions: 50 mM KCl, 10% DMSO, 10% ethanol, 60 μM compound, error ±2%
[3] = test system: CPG-ds27 (DNA, hairpin) CGCGAATTCGCGTTTCGCGAATTCGCG; experiment: G4-CPG affinity assay, UV; conditions: 50 mM KCl, 10% DMSO, 10% ethanol, 60 μM compound, error ±2%
[4] = test system: tel26 (DNA, G4) TTAGGGTTAGGGTTAGGGTTAGGGTT; experiment: CD melting, 290 nm; conditions: 5 mM KCl, 5 mM KH2PO4; 5% DMSO, pH 7; 2 μM DNA, 20 μM compound (10 equiv.); Tm ± 1
[5] = test system: Pu22T14T23 (Pu22) (DNA, G4) TGAGGGTGGGTAGGGTGGGTAA; experiment: CD melting, 265 nm; conditions: 5 mM KCl, 5 mM KH2PO4; 5% DMSO, pH 7; 2 μM DNA, 20 μM compound (10 equiv.); Tm ± 1
[6] = test system: ds12 (Dickerson dodecamer) (DNA, duplex) CGCGAATTCGCG; experiment: CD melting, 253 nm; conditions: 5 mM KCl, 5 mM KH2PO4; 5% DMSO, pH 7; 2 μM DNA, 20 μM compound (10 equiv.); Tm ± 1
[7] = test system: tel26 (DNA, G4) TTAGGGTTAGGGTTAGGGTTAGGGTT; experiment: fluorescence titration, 2 μM ligand, equivalent-sites fit; conditions: 5 mM KCl, 5 mM KH2PO4; 5% DMSO, pH 7, 20 °C
[8] = test system: Pu22T14T23 (Pu22) (DNA, G4) TGAGGGTGGGTAGGGTGGGTAA; experiment: as above; conditions: 5 mM KCl, 5 mM KH2PO4; 5% DMSO, pH 7, 20 °C
[9] = test system: ds12 (Dickerson dodecamer) (DNA, duplex) CGCGAATTCGCG; experiment: as above; conditions: 5 mM KCl, 5 mM KH2PO4; 5% DMSO, pH 7, 20 °C

Structure (SMILES): COc1cc2c(cc1OC)-c1c(OC)c(OC)cc3c1[C@H](C2)N(C)CC3
- Bound Ligand ([1]; nude CPG 0%): 2%
- Bound Ligand ([2]; nude CPG 0%): 1%
- Bound Ligand ([3]; nude CPG 0%): 0%

Structure (SMILES): COc1cc2c(cc1OC)-c1c3c(cc4c1[C@H](C2)N(C)CC4)OCO3
- ΔTm [4]: +3 °C
- ΔTm [5]: +5 °C
- ΔTm [6]: +1 °C
- Bound Ligand ([1]; nude CPG 0%): 67%
- Bound Ligand ([2]; nude CPG 0%): 47%
- Bound Ligand ([3]; nude CPG 0%): 30%
- Kb [7]: (2.8 ± 1.2) × 10^6 M^−1
- Kb [8]: (0.8 ± 0.5) × 10^6 M^−1
- Kb [9]: (3.2 ± 0.4) × 10^5 M^−1

Structure (SMILES): COc1ccc2c(c1OC)CN1CCc3cc4c(cc3[C@@H]1C2)OCO4
- Bound Ligand ([3]; nude CPG 21%): 4%

Other lines, results leading:

- Bound Ligand ([1]; nude CPG 8%): 8%
- Bound Ligand ([2]; nude CPG 8%): 8%
- Bound Ligand ([3]; nude CPG 8%): 8%
Structure (SMILES): CC1(C)C=Cc2c(ccc3c2O[C@@H]2COc4cc5c(cc4[C@@H]2C3=O)OCO5)O1

- Bound Ligand ([1]; nude CPG 0%): 0%
- Bound Ligand ([2]; nude CPG 0%): 0%
- Bound Ligand ([3]; nude CPG 0%): 0%
Structure (SMILES): COc1cc2c(cc1OC)[C@@H]1C(=O)c3ccc4c(c3O[C@@H]1CO2)C=CC(C)(C)O4
